Assay results from patent US8697709B2, “Fused ring heteroaryl kinase inhibitors” (The Regents of the University of California, priority 2008, dated 2014).
Where a chain is given by its changes, count along the chain named. Like-named read-outs stand apart in the source and are kept apart here.

Columns and labels:
T338G Src = T338G Src (Gallus gallus, UniProt P00523, T338G); assay: In vitro kinase assay, T338G Src; type: biochemical; conditions: Table 1b
Procedure: (§1) Kinase reactions were initiated by the addition of […] cold ATP supplemented with 5 mCi γ^32P ATP and allowed to proceed at room temperature (RT). At 10 minutes […] of the reactions were spotted onto phosphocellulose sheets (P81, Whatman) and subsequently soaked in wash buffer (1.0% (v/v) phosphoric acid). The sheets were washed five times in buffer, dried, and transferred radioactivity was measured by phosphorimaging using a TyphoonTM scanner (Molecular Dynamics). Radioactive counts were quantified using ImageQuantTM software, and titration data were fit to a sigmoidal dose response to derive IC50 values using the Prism® software package. Dose responses were based on a 12 point inhibitor titration, using 1⁄3 dilutions starting from […]. Experiments were completed 2-4 times to derive mean values.

T315I Abl = biological target: T1, T315I Abl (Homo sapiens, UniProt P00519, T315I); assay: In vitro kinase assay, T315I Abl; type: biochemical; conditions: Table 1b
T1 sequence (P00519 242-493 T315I limits assumed): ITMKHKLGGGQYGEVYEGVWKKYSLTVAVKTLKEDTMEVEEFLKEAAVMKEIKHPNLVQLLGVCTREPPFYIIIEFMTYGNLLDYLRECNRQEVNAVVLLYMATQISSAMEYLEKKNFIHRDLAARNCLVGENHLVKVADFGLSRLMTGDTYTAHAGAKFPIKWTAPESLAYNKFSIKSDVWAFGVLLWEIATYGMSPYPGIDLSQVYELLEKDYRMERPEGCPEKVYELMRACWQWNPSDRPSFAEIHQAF
Procedure: as §1

c-Src = c-Src (Gallus gallus, UniProt P00523); assay: In vitro kinase assay (32P peptide phosphorylation), WT Src; type: biochemical
T315A Abl = biological target: T2, T315A Abl (Homo sapiens, UniProt P00519, T315A); assay: In vitro kinase assay, T315A Abl; type: biochemical; conditions: Table 1b
T2 sequence (P00519 242-493 T315A limits assumed): T1 sequence (P00519 242-493 T315I limits assumed) with I74A
Procedure: as §1

Abl = biological target: T3, Abl (Homo sapiens, UniProt P00519); assay: In vitro kinase assay (32P peptide phosphorylation), WT Abl; type: biochemical
T3 sequence (P00519 242-493 limits assumed): T1 sequence (P00519 242-493 T315I limits assumed) with I74T

parental BaF3 cells = assay: Cell proliferation (Resazurin) of parental BaF3 cells; type: cell-based; conditions: grown with recombinant IL-3; especially at 1 mM inhibitor
Text: The ability of AD57 to inhibit Bcr-Abl and T315I Bcr-Abl was examined in a cell based assay. The Bcr-Abl oncogene was transduced into BaF3 cells, rendering them IL-3-independent. “IL-3” refers to interleukin 3 which in human maps to gene locus 5q31.1, as known in the art. Recombinant IL-3 is available commercially. BaF3 is a hematopoietic cell line that is normally dependent on IL-3 for growth and proliferation. However, through expression of activated Bcr-Abl, the cells become transformed to an IL-3 independent state. In this assay, cell proliferation is directly correlated to the activity of Bcr-Abl. Wild-type Bcr-Abl, T315I Bcr-Abl, and parental BaF3 cells were treated with AD57 (Cmpd 5) at the indicated concentrations for two days. The parental BaF3 cells, but not the Bcr-Abl transduced cells, were grown in the presence of recombinant IL-3 during the time course of this experiment. After the two day treatment, cell proliferation was quantified using the dye Resazurin, which is converted into a fluorescently detectable form only when metabolized by living cells.
It is possible to inhibit the growth of BaF3 cells transduced with Bcr-Abl through non-specific inhibition mediated toxicity. Therefore, the effects of the inhibitors on the growth of parental BaF3 cells have also been measured.

[1] = test system: Bcr-Abl transduced BaF3 cells; assay: Cell proliferation (Resazurin) of Bcr-Abl transduced BaF3 cells; type: cell-based; conditions: two day treatment, without IL-3
[2] = Table 1b, read-out: IC50 WT Src
[3] = Table 1b, read-out: IC50 WT Abl

Compound | IC50 (T338G Src) | IC50 (T315I Abl) | IC50 (c-Src; [2]) | IC50 (T315A Abl) | IC50 (Abl; [3]) | inhibition of growth of parental BaF3 cells (parental BaF3 cells) | IC50 (c-Src; unphosphorylated kinase domain, 100 mM ATP, read-out: IC50 for c-Src) | inhibition of growth of Bcr-Abl BaF3 cells [1] | IC50 (Abl; unphosphorylated kinase domain, 100 mM ATP, read-out: IC50 for Abl)
Cn1nc(-c2ccc(NC(=O)Nc3cccc(C(F)(F)F)c3)cc2)c2c(N)ncnc21 [AD59, 1-(4-(4-amino-1-methyl-1H-pyrazolo[3,4-d]pyrimidin-3-yl)phenyl)-3-(3-(trifluoromethyl)phenyl)urea] |  | < 1 µM |  |  | < 1 µM |  |  |  | 
CC(C)n1nc(-c2ccc(NC(=O)Nc3cccc(C(F)(F)F)c3)cc2)c2c(N)ncnc21 [AD57, 1-(4-(4-amino-1-isopropyl-1H-pyrazolo[3,4-d]pyrimidin-3-yl)phenyl)-3-(3-(trifluoromethyl)phenyl)urea] | < 1 µM | < 1 µM | < 1 µM |  | < 1 µM | but not parental BaF3 cells | 0.025 µM | equally inhibits the growth | 0.041 µM
CC(C)n1nc(-c2ccc(NC(=O)Nc3ccccc3)cc2)c2c(N)ncnc21 [AD58] |  | < 1 µM | < 1 µM |  | < 1 µM |  |  |  | 
CC(C)n1nc(-c2ccc(NC(=O)Nc3cccc(C(F)(F)F)c3)cc2)c2c(NC(=O)C3CC3)ncnc21 [AD61] | < 1 µM | < 1 µM | < 1 µM | < 1 µM | < 1 µM |  |  |  | 

Continued, in another order:

IC50 (T338G Src) | IC50 (T315I Abl) | IC50 (c-Src; [2]) | IC50 (T315A Abl) | IC50 (Abl; [3]) | Compound | inhibition of growth of parental BaF3 cells (parental BaF3 cells) | IC50 (c-Src; unphosphorylated kinase domain, 100 mM ATP, read-out: IC50 for c-Src) | inhibition of growth of Bcr-Abl BaF3 cells [1] | IC50 (Abl; unphosphorylated kinase domain, 100 mM ATP, read-out: IC50 for Abl)
1 to 5 µM | < 1 µM | > 5 µM | > 5 µM | > 5 µM | CC(C)n1nc(-c2ccc(NC(=O)Nc3cccc(C(F)(F)F)c3)cc2)c2c(NC(=O)c3ccc(C(C)(C)C)cc3)ncnc21 [AD63] |  |  |  | 
< 1 µM | < 1 µM | < 1 µM | < 1 µM | < 1 µM | CC(C)n1nc(-c2ccc(NC(=O)Nc3cccc(C(F)(F)F)c3)cc2)c2c(NC(=O)C3CCCC3)ncnc21 [AD62] |  |  |  | 
 | < 1 µM |  |  | < 1 µM | Nc1ncnc2c1c(-c1ccc(NC(=O)Nc3cccc(C(F)(F)F)c3)cc1)nn2C1CCCC1 [AD60, 1-(4-(4-amino-1-cyclopentyl-1H-pyrazolo[3,4-d]pyrimidin-3-yl)phenyl)-3-(3-(trifluoromethyl)phenyl)urea] |  |  |  | 
